{"source": "patent US20110257208A1", "about": "“COMPOUNDS USEFUL AS FAAH MODULATORS AND USES THEREOF” (priority 2008, published 2011)", "data": [{"target": "T1, hFAAH (Homo sapiens, UniProt O00519)", "T1 construct": "expressed in transfected cells; host or cells: HEK293-TRex (Invitrogen) stably transfected with hFAAH in the pcDNA5-Tet-off vector, or T84 human colon epithelial cells (endogenous hFAAH); used as a microsomal preparation", "T1 sequence (O00519 1-579)": "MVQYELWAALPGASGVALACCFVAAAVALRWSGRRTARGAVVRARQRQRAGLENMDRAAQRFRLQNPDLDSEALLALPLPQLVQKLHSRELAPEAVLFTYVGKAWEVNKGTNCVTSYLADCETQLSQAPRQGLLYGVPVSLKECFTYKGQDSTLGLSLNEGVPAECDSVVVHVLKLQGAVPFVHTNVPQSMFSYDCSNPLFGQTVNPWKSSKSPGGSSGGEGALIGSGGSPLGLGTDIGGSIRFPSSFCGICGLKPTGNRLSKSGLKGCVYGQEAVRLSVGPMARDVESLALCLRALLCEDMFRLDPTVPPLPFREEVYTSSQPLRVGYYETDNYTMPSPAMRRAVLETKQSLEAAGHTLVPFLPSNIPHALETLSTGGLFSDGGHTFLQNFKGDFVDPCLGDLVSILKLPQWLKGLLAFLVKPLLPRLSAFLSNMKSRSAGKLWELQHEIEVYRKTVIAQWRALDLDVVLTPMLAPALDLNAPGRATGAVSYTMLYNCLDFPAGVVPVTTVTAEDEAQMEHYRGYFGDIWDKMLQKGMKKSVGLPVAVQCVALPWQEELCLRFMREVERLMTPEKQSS", "test": "Fluorimetric assay with hFAAH microsomes (enzymatic, fluorescence based)", "type": "biochemical", "details": "compound at 1 uM, AA-AMC substrate", "outline": "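Microsomes from T84 cells (endogenous hFAAH) or doxycycline-induced HEK293-TRex cells stably expressing hFAAH, 10 μg per well, in 50 mM HEPES pH 7.4, 1 mM EDTA, 1.4 mg/mL BSA with 2 μM AA-AMC. Kinetic fluorescence read (ex 355/em 460 nm, 275 cycles); activity as % inhibition, 7 concentrations in duplicate.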", "units": {"inhibition at 1 µM": "%"}, "values": [{"smiles": "CC(C)CN1Cc2ncnc(Nc3cnc4ccccc4c3)c2C1", "note": "[Compound 7, (6-Isobutyl-6,7-dihydro-5H-pyrrolo[3,4-d]pyrimidin-4-yl)-quinolin-3-yl-amine]", "inhibition at 1 µM": "> 25"}, {"smiles": "CC(C)C(C)N1Cc2ncnc(Nc3cnc4ccccc4c3)c2C1", "note": "(stereo not drawn) [Compound 32, [6-(1,2-Dimethyl-propyl)-6,7-dihydro-5H-pyrrolo[3,4-d]pyrimidin-4-yl]-quinolin-3-yl-amine]", "inhibition at 1 µM": "> 25"}, {"smiles": "O=C(CN1CCCCCC1)N1Cc2ncnc(Nc3cnc4ccccc4c3)c2C1", "note": "[Compound 52, 2-Azepan-1-yl-1-[4-(quinolin-3-ylamino)-5,7-dihydro-pyrrolo[3,4-d]pyrimidin-6-yl]-ethanone]", "inhibition at 1 µM": "< 25"}, {"smiles": "Cc1noc(C)c1CN1Cc2ncnc(Nc3cnc4ccccc4c3)c2C1", "note": "[Compound 67, [6-(3,5-Dimethyl-isoxazol-4-ylmethyl)-6,7-dihydro-5H-pyrrolo[3,4-d]pyrimidin-4-yl]-quinolin-3-yl-amine]", "inhibition at 1 µM": "> 25"}, {"smiles": "Clc1ncc(CN2Cc3ncnc(Nc4cnc5ccccc5c4)c3C2)s1", "note": "[Compound 91, [6-(2-Chloro-thiazol-5-ylmethyl)-6,7-dihydro-5H-pyrrolo[3,4-d]pyrimidin-4-yl]-quinolin-3-yl-amine]", "inhibition at 1 µM": "> 50"}, {"smiles": "c1ccc(CCN2Cc3ncnc(Nc4cnc5ccccc5c4)c3C2)cc1", "note": "[Compound 22, (6-Phenethyl-6,7-dihydro-5H-pyrrolo[3,4-d]pyrimidin-4-yl)-quinolin-3-yl-amine]", "inhibition at 1 µM": "> 75"}, {"smiles": "Cc1nc(C)c(NC(=O)N2Cc3ncnc(Nc4cnc5ccccc5c4)c3C2)s1", "note": "[Compound 51, 4-(Quinolin-3-ylamino)-5,7-dihydro-pyrrolo[3,4-d]pyrimidine-6-carboxylic acid (2,4-dimethyl-thiazol-5-yl)-amide]", "inhibition at 1 µM": "< 25"}, {"smiles": "Cc1nc(C)c(CC(=O)N2Cc3ncnc(Nc4cnc5ccccc5c4)c3C2)s1", "note": "[Compound 50, 2-(2,4-Dimethyl-thiazol-5-yl)-1-[4-(quinolin-3-ylamino)-5,7-dihydro-pyrrolo[3,4-d]pyrimidin-6-yl]-ethanone]", "inhibition at 1 µM": "< 25"}, {"smiles": "FC(F)(F)c1cccc(CN2Cc3ncnc(Nc4cnc5ccccc5c4)c3C2)c1", "note": "[Compound 99, Quinolin-3-yl-[6-(3-trifluoromethyl-benzyl)-6,7-dihydro-5H-pyrrolo[3,4-d]pyrimidin-4-yl]-amine]", "inhibition at 1 µM": "> 75"}]}]}
